This experiment deals with c-Met (Homo sapiens, UniProt P08581). Description: radiometric protein kinase assay with recombinant human c-Met. Format: biochemical.

Molecules are shown by their SMILES.

c-Met, sequence (P08581 25-307): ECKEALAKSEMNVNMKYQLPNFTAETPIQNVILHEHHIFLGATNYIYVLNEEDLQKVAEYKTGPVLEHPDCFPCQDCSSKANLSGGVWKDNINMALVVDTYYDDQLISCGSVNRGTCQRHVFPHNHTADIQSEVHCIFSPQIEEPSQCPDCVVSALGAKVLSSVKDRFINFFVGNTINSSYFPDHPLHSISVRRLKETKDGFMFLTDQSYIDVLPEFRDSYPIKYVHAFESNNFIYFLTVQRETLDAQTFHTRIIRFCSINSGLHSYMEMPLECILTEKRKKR
c-Met, sequence (P08581 308-1390): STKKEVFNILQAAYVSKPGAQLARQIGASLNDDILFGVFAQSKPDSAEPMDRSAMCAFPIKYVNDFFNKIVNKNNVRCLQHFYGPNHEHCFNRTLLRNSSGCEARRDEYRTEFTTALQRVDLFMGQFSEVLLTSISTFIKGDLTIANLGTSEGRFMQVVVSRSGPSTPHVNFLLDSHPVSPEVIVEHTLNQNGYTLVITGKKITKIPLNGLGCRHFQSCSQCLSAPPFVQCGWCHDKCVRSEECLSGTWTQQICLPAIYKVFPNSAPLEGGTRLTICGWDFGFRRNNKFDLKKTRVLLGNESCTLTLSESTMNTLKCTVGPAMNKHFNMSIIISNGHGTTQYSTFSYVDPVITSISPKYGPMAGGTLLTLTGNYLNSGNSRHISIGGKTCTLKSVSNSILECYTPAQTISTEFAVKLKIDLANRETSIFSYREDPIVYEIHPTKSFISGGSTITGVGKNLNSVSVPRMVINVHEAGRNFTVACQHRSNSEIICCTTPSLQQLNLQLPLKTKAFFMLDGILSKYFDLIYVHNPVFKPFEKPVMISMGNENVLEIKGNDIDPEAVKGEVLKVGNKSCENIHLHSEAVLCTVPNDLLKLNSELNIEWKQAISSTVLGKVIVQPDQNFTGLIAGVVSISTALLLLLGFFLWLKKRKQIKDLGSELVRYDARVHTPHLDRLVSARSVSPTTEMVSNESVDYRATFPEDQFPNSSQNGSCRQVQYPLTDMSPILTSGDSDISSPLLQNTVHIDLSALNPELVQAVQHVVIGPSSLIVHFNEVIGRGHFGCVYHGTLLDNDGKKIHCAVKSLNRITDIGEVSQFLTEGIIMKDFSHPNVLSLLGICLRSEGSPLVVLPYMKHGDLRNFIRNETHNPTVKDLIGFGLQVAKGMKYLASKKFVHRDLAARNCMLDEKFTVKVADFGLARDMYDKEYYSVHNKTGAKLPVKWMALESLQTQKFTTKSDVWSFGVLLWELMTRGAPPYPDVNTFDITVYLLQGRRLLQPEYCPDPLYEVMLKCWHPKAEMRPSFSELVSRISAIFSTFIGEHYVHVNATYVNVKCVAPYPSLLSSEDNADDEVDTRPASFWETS

Consider `COc1c(C=O)c(O)cc2c1C(=O)c1ccccc1C2=O` [damnacanthal, 3-hydroxy-1-methoxy-anthraquinone-2-aldehyde], for which the IC50 – broadly, the point on the concentration scale where inhibition reaches its midpoint – came out at 5.1 ± 0.1 µM.

Values taken from paper PMC4306130 (Scientific Reports, 2015).
